{"source": "paper PMC11965660", "about": "“Isobavachalcone ameliorates Alzheimer disease pathology by autophagy-mediated clearance of amyloid beta and inhibition of NLRP3 inflammasome in primary astrocytes and 5x-FAD mice” (Frontiers in Pharmacology, 2025)", "key": {"GFAP": {"test_system": "GFAP", "test": "Immunohistochemistry of GFAP in hippocampus", "format": "in vivo, 5x-FAD mice", "settings": "25 and 50 mg/kg, vs 5x-FAD control", "excerpt": "(§1) Hemizygous 5x-FAD transgenic mice (B6.Cg-Tg(APPSwFlLon, PSEN1*M146L*L286V) 6799Vas/Mmjax; MMRRC Strain: 034848-JAX) on congenic C57BL/6J genetic background were used for experiments. The 5x-FAD mice were genotyped using APP-specific qPCR probes to detect the transgene as per the protocol of Jackson Laboratory. Six months old 5x-FAD mice were randomly divided into three groups (n = 5), based on their body weights, with three males and two females in each group. We used mixed-cohort of males and females for our study to exclude any gender biased effect of IBC. Also, AD symptoms are more pronounced in females than in males ([Aggarwal and Mielke, 2023]), making it possible that males and females respond differently to the drug and treatment. Considering this, it is important to show effect of IBC on both sexes. At this age, Aβ deposition and neuroinflammation has already progressed in these mice. We have used IBC as a curative drug rather than a preventive drug. Prior to the initiation of the study, all the animals were acclimatized for 1 week under standard laboratory conditions; animals were drug naive with no prior procedures performed. All testing were performed from 1 to 4 p.m. […]\nMice’s hippocampus tissue was fixed in 10% formalin. […] Images were taken in a CQ1 high throughput imaging system and analyzed using cell pathfinder software."}, "Aβ42": {"test_system": "Aβ42", "test": "Aβ estimation in plasma by ELISA", "format": "in vivo, 5x-FAD mice", "settings": "25 and 50 mg/kg, vs untreated 5x-FAD control", "excerpt": "as §1\nAfter the end of the experiment, blood was collected from the retinal orbital plexus of mice in EDTA-coated vials. […] The levels of Aβ in the plasma were measured by using the protein-specific ELISA kit."}, "NLRP3 inflammasome": {"test_system": "NLRP3 inflammasome", "test": "NLRP3 inflammasome activation in primary astrocytes: immunoblotting, ASC oligomers and specks, co-localization", "format": "cell-based, C57BL/6J mice", "settings": "for co-localization of CASP1 and NLRP3: 10 μM", "experimental": "Primary astrocytes were first treated with microglia conditional media to induce astrogliosis ([Liddelow et al., 2017]). For this, the microglia (N9) cell line, provided by Dr. Anirban Basu (National Brain Research Centre, Gurgaon, India) was cultured in RPMI-1640. N9 cells (Passage 28-35) were seeded in 24 well plate at density 0.05 × 10^6 per well. The cells were treated with 1 μg/ml LPS, and supernatant was collected after 24 h. Seeded astrocytes were then treated with the LPS stimulated N9 cells supernatant for 24 h. Thereafter, the treatment for NLRP3 inflammasome activation was given, including priming with fresh 1 μg/ml LPS for 4 h, followed by washing and IBC or MCC950 (100 nM) treatment for 1 h in incomplete media (media without fetal bovine serum). ATP at 5 mM concentration was used as secondary signal for 30 min.\nFollowing treatment with 5 and 10 μM IBC (1 h) and NLRP3 inflammasome activation in primary astrocytes, cells were lysed with ice-cold buffer (KCl [150 mM], HEPES-KOH [20 mM, pH 7.5], NP-40 [1%], sodium orthovanadate [1 mM], PMSF [0.1 mM] and protease inhibitor cocktail [1%]). Cells were centrifuged at 300 g for 10 min. The supernatant was collected for western blot analysis of total ASC protein. The pellet was washed with cold PBS and resuspended in 500 µL cold PBS. For the crosslinking of ASC, 2 mM of […] was added to the resuspended pellet and incubated at 37°C for 30 min in water bath. After centrifugation, the supernatant was discarded, and a 2X Laemmli buffer was added to the pellet. The samples were heated at 95°C for 5 min and subjected to western blotting for analyzing ASC oligomers.\nLevels of cleaved IL-1β and caspase-1 were analyzed in cellular supernatant. The supernatant collected after the end of the experiment was incubated with StartaClean resin for 1 h at 4°C. Samples were kept on rotation so that the resin could bind properly with proteins. The concentrated resin pellet was obtained by centrifuging samples at 300 g for 10 min 2X Laemmli buffer was added to the resin pellet, heated at 95°C for 10 min, and subjected to western blotting.\nCellular lysates were prepared using radio immuno precipitation assay (RIPA) buffer for protein analysis. Briefly, the cell pellet was dissolved in RIPA buffer containing sodium fluoride, sodium orthovanadate, phenyl methyl sulfonyl fluoride (PMSF) and 1% protease inhibitor cocktail for 1 h with vertexing sample every 15 min. The supernatant was collected after high-speed centrifugation of samples for 20 min at 4°C. For analysis of proteins in mice hippocampi, the hippocampi isolated from mice brains was immediately washed with saline and stored in liquid nitrogen. For lysates preparation, tissue was homogenized in RIPA buffer substituted with sodium fluoride, sodium orthovanadate, phenyl methyl sulfonyl fluoride and 1% protease inhibitor cocktail. Total protein was measured using Bradford assay. Proteins were separated using SDS-PAGE and then transferred from gel to PVDF membrane. The protein of interest was labeled with a specific primary antibody overnight at 4°C. Further, the blot was incubated with corresponding HRP-conjugated secondary antibody for 1 h at room temperature. The band were visualized in the Genaxy Chemi Doc imaging system (Make: Syngene, Maryland, USA; Model: G: BOX, XT-4). Densitometry analysis of all the immunoblots was performed by using ImageJ software. Band density of proteins was normalized with β-actin. The phosphorylated proteins were normalized with their total forms.\nCells were seeded on coverslips in 6 well plates. After treatments, cells were fixed with 4% paraformaldehyde (PFA) for 15 min and permeabilized with 0.1% Triton-X 100 for 7 min. Blocking was done for 30 min with 2% BSA, followed by overnight incubation with primary antibody. Alexa fluor conjugated secondary antibody incubation was given to cells for 1 h for labeling. The nucleus was stained with 4,6-diamidino-2-phenylindole (DAPI) (1 μg/mL) for 10 min. […]"}, "[1]": {"settings": "LPS + ATP, 5 and 10 μM, western blot"}, "[2]": {"settings": "in the presence of LPS and ATP, 5 and 10 μM"}}, "data": [{"smiles": "CC(C)=CCc1c(O)ccc(C(=O)/C=C/c2ccc(O)cc2)c1O", "note": "[IBC, isobavachalcone]", "values": [{"measurement": "GFAP expression (IHC)", "setting": "GFAP", "result": "significantly reduced"}, {"measurement": "Aβ42 in blood plasma", "setting": "Aβ42", "result": "reduced levels"}, {"measurement": "ASC speck formation", "setting": "NLRP3 inflammasome; 5 μM and 10 µM, vs cells induced with ATP", "result": "highly significant (p < 0.0001) reduction"}, {"measurement": "co-localization of CASP1 and NLRP3", "setting": "NLRP3 inflammasome; in the presence of siAMPK", "result": "did not affect the co-localization"}, {"measurement": "co-localization of CASP1 and NLRP3", "setting": "NLRP3 inflammasome; vs LPS + ATP", "result": "reduced the co-localization"}, {"measurement": "ASC monomer, dimer, and oligomer formation", "setting": "NLRP3 inflammasome; LPS + ATP, 5 and 10 μM", "result": "inhibited"}, {"measurement": "cleaved CASP1 in supernatant", "setting": "NLRP3 inflammasome; [1]", "result": "reduced release"}, {"measurement": "cleaved IL-1β in supernatant", "setting": "NLRP3 inflammasome; [1]", "result": "reduced release"}, {"measurement": "NLRP3 protein expression", "setting": "NLRP3 inflammasome; LPS + ATP, western blot", "result": "no change"}, {"measurement": "AMPK phosphorylation (Thr 172)", "setting": "NLRP3 inflammasome; [2]", "result": "significantly enhanced phosphorylation"}, {"measurement": "LC3B-II level", "setting": "NLRP3 inflammasome; [2]", "result": "marked increase"}, {"measurement": "SQSTM1 level", "setting": "NLRP3 inflammasome; [2]", "result": "significant decline"}, {"measurement": "inhibitory effect on IL-1b and CASP1 under AMPK knockdown", "setting": "NLRP3 inflammasome; siAMPK, LPS + ATP", "result": "completely reversed"}]}]}
